Source: paper PMC11189555, “Aryl amino acetamides prevent Plasmodium falciparum ring development via targeting the lipid-transfer protein PfSTART1” (Nature Communications, 2024)
pEC50: −log10 of the molar value. Read-outs that look alike come from different tables or passages of the source.

Assays:
[1] = system: 3D7 P. falciparum parasites; assay: Growth inhibition assay (72 h, LDH activity); type: cell-based, Plasmodium falciparum; conditions: for inhibition / pEC50: Plasmodium falciparum; for inhibition: 3D7, 3D7, read-out: NORMALISED (growth inhibition, LDH absorbance)
Outline: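 Synchronised ring-stage P. falciparum (0.3-0.6% parasitemia, 2% haematocrit) grown 72 h in serial compound dilutions, sometimes with 0, 0.25 or 2.5 mM glucosamine. Growth read as LDH activity (Malstat/NBT, A650) after freeze-thaw, normalised to DMSO and uninfected RBC. EC50 by nonlinear regression.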

in vitro = conditions: human
[2] = system: PopE-F10 M-833 resistant clone (PfSTART1 N330K); assay: Growth inhibition assay (72 h, LDH activity); type: cell-based, Plasmodium falciparum
Outline: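 Synchronised ring-stage 3D7-derived clones (0.3-0.6% parasitemia, 2% haematocrit) grown 72 h in compound serial dilutions, some with 0, 0.25 or 2.5 mM glucosamine. Growth read as LDH activity after freeze-thaw (Malstat/NBT, A650), normalised to DMSO and uninfected RBC; EC50 from variable-slope log(inhibitor) fit.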

`CC(C)(Nc1ccc(Cl)c(S(=O)(=O)N2CCOCC2)c1)C(=O)Nc1ccc(F)c(Cl)c1` [W-991] gave an inhibition ([1]; 0.25 mM GlcN, dilution point 1 of 10, starting concentration 100 nM) of 94.1%, an inhibition ([1]; 0.25 mM GlcN, dilution point 2 of 10 from starting concentration 100 nM) of 94.3% and an inhibition ([1]; 0.25 mM GlcN, dilution point 3 of 10 from starting concentration 100 nM) of 95.3%. It also gave an inhibition ([1]; 0.25 mM GlcN, dilution point 4 of 10 from starting concentration 100 nM) of 91.5%, an inhibition ([1]; 2.5 mM GlcN, dilution point 1 of 10, starting concentration 100 nM) of 89.4% and an inhibition ([1]; 2.5 mM GlcN, dilution point 2 of 10 from starting concentration 100 nM) of 91.3%. The inhibition ([1]; 2.5 mM GlcN, dilution point 3 of 10 from starting concentration 100 nM) was 88.4%, the inhibition ([1]; 2.5 mM GlcN, dilution point 4 of 10 from starting concentration 100 nM) was 86.4% and the inhibition ([1]; 2.5 mM GlcN, dilution point 5 of 10 from starting concentration 100 nM) was 65.7%. The inhibition ([1]; 2.5 mM GlcN, dilution point 6 of 10 from starting concentration 100 nM) was 40.2%, the pEC50 ([1]; 3D7, 72 h, Supplementary Table 1, 3D7, 72 h, read-out: EC50) was 9.14 and the pEC50 ([1]; 3D7, Fig 4C, 3D7, 0 mM GlcN, n = 3, read-out: EC50 W-991 (95% confidence interval)) was 9.03. For the same molecule, the pEC50 ([1]; 3D7, Fig 4C, 3D7, 0.25 mM GlcN, n = 3, read-out: EC50 W-991 (95% confidence interval)) was 9.04, the pEC50 ([1]; 3D7, Fig 4C, 3D7, 2.5 mM GlcN, n = 3, read-out: EC50 W-991 (95% confidence interval)) was 9.10 and the pEC50 ([1]; 3D7, text on structure activity relationship (Fig 4A), read-out: EC50, antiparasitic activity) was 8.15. For the same molecule, the “effect of GlcN addition on EC50” value ([1]; control 3D7, Fig 4C) was “did not change the EC50”, the CC50 (in vitro) was 29000 nM and the pEC50 ([2]; Plasmodium falciparum, 72 h, Supplementary Table 1, PopE-F10 (N330K), 72 h, read-out: EC50) was less than 6.70. The “resistance of the line compared with 3D7” value ([2]; PopE-F10 (N330K), Fig 4B) was “highly resistant”, the “(av-uRBC) / (DMSO-uRBC) x100” value ([2]; PopE-F10, 0.0762079 nM, biological replicate 1) was 96.1179 and the “(av-uRBC) / (DMSO-uRBC) x100” value ([2]; PopE-F10, 0.0762079 nM, biological replicate 2) was 104.725. For the same molecule, the “(av-uRBC) / (DMSO-uRBC) x100” value ([2]; PopE-F10, 0.0762079 nM, biological replicate 3) was 92.7129, the “(av-uRBC) / (DMSO-uRBC) x100” value ([2]; PopE-F10, 0.228624 nM, biological replicate 1) was 102.983 and the “(av-uRBC) / (DMSO-uRBC) x100” value ([2]; PopE-F10, 0.228624 nM, biological replicate 2) was 105.368. For the same molecule, the “(av-uRBC) / (DMSO-uRBC) x100” value ([2]; PopE-F10, 0.228624 nM, biological replicate 3) was 109.575, the “(av-uRBC) / (DMSO-uRBC) x100” value ([2]; PopE-F10, 0.685871 nM, biological replicate 1) was 97.996 and the “(av-uRBC) / (DMSO-uRBC) x100” value ([2]; PopE-F10, 0.685871 nM, biological replicate 2) was 105.748. The “(av-uRBC) / (DMSO-uRBC) x100” value ([2]; PopE-F10, 0.685871 nM, biological replicate 3) was 95.4244, the “(av-uRBC) / (DMSO-uRBC) x100” value ([2]; PopE-F10, 2.05761 nM, biological replicate 1) was 96.037 and the “(av-uRBC) / (DMSO-uRBC) x100” value ([2]; PopE-F10, 2.05761 nM, biological replicate 2) was 105.199. For the same molecule, the “(av-uRBC) / (DMSO-uRBC) x100” value ([2]; PopE-F10, 2.05761 nM, biological replicate 3) was 105.366, the “(av-uRBC) / (DMSO-uRBC) x100” value ([2]; PopE-F10, 6.17284 nM, biological replicate 1) was 97.8882 and the “(av-uRBC) / (DMSO-uRBC) x100” value ([2]; PopE-F10, 6.17284 nM, biological replicate 2) was 105.604. For the same molecule, the “(av-uRBC) / (DMSO-uRBC) x100” value ([2]; PopE-F10, 6.17284 nM, biological replicate 3) was 97.9523, the “(av-uRBC) / (DMSO-uRBC) x100” value ([2]; PopE-F10, 18.5185 nM, biological replicate 1) was 96.9806 and the “(av-uRBC) / (DMSO-uRBC) x100” value ([2]; PopE-F10, 18.5185 nM, biological replicate 2) was 104.615. For the same molecule, the “(av-uRBC) / (DMSO-uRBC) x100” value ([2]; PopE-F10, 18.5185 nM, biological replicate 3) was 86.3579, the “(av-uRBC) / (DMSO-uRBC) x100” value ([2]; PopE-F10, 55.5556 nM, biological replicate 1) was 92.6042 and the “(av-uRBC) / (DMSO-uRBC) x100” value ([2]; PopE-F10, 55.5556 nM, biological replicate 2) was 99.4928. For the same molecule, the “(av-uRBC) / (DMSO-uRBC) x100” value ([2]; PopE-F10, 55.5556 nM, biological replicate 3) was 87.996, the “(av-uRBC) / (DMSO-uRBC) x100” value ([2]; PopE-F10, 166.667 nM, biological replicate 1) was 76.4288 and the “(av-uRBC) / (DMSO-uRBC) x100” value ([2]; PopE-F10, 166.667 nM, biological replicate 2) was 88.6391. For the same molecule, the “(av-uRBC) / (DMSO-uRBC) x100” value ([2]; PopE-F10, 166.667 nM, biological replicate 3) was 66.2195, the “(av-uRBC) / (DMSO-uRBC) x100” value ([2]; PopE-F10, 500 nM, biological replicate 1) was 33.5999 and the “(av-uRBC) / (DMSO-uRBC) x100” value ([2]; PopE-F10, 500 nM, biological replicate 2) was 49.6703. The “(av-uRBC) / (DMSO-uRBC) x100” value ([2]; PopE-F10, 500 nM, biological replicate 3) was 27.1431 and the “Fold change compared to 3D7” value ([2]; Supplementary Table 1, EC50 on PopE-F10 vs 3D7) was greater than 278 fold.
